Among the data in ChEMBL document CHEMBL5576074, “[1,2,4]Triazolo[1,5-a]pyrimidine derivatives: Structure-activity relationship study leading to highly selective ENPP1 inhibitors” (Bioorg Med Chem Lett, 2024) are IC50 and inhibition values, retold here.

Test [1] has as its target T1, Glycerophosphocholine cholinephosphodiesterase ENPP6 (Homo sapiens, UniProt Q6UWR7).
T1 sequence (Q6UWR7 whole entry): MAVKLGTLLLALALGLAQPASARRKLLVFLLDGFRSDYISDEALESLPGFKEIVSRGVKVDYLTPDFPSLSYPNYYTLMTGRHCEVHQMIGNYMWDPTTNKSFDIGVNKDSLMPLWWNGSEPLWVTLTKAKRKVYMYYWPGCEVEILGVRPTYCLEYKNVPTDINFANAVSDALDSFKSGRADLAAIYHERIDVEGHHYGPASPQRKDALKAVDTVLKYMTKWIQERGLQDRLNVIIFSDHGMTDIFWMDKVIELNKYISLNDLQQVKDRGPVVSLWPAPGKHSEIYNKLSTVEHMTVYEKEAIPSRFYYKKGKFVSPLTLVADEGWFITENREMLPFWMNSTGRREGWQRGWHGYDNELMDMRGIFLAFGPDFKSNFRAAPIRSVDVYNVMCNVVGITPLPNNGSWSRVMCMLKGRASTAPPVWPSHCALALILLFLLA
Description: Inhibition of ENPP6 (unknown origin).

In test [2] the target is T2, Autotaxin (Homo sapiens, UniProt Q13822). Kind of test: Inhibition of ENPP2 (unknown origin) at 50 uM relative to control.
The target of test [3] is T3, Ectonucleotide pyrophosphatase/phosphodiesterase family member 3 (Homo sapiens) (UniProt O14638).
T3 sequence (whole entry): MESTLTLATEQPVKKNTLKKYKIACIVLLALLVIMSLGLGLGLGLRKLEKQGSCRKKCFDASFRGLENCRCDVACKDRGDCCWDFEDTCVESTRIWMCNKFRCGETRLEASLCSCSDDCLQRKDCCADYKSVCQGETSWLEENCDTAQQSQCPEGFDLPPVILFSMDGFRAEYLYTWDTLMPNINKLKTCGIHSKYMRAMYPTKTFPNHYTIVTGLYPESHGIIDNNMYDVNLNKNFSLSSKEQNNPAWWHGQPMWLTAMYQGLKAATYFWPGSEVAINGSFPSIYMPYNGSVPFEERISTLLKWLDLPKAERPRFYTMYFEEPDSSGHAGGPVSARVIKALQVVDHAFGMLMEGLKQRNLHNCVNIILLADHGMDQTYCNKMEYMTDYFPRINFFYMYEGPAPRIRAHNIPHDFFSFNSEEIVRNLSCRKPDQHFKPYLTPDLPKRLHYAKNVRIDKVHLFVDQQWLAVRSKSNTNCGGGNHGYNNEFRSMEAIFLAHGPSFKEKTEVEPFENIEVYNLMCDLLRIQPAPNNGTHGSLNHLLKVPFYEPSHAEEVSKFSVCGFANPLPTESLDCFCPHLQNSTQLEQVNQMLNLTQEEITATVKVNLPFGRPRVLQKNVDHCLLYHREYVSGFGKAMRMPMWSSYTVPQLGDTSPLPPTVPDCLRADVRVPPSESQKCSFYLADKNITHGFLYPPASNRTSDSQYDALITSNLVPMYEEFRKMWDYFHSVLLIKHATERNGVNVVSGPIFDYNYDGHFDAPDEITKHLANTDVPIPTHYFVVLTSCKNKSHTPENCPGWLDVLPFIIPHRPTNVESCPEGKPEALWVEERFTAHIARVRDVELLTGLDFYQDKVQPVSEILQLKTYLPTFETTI
Kind of test: Inhibition of ENPP3 (unknown origin) at 50 uM relative to control.

The target in test [4] is T4, Glycerophosphocholine cholinephosphodiesterase ENPP6 (Homo sapiens) (UniProt Q6UWR7).
T4 sequence (whole entry): T1 sequence (Q6UWR7 whole entry)
Kind of test: Inhibition of ENPP6 (unknown origin) at 50 uM relative to control.

Test [5] addresses T5, Ectonucleotide pyrophosphatase/phosphodiesterase family member 3 (Homo sapiens, UniProt O14638).
T5 sequence (O14638 whole entry): T3 sequence (whole entry)
Description: Inhibition of ENPP3 (unknown origin).

In test [6] the target is T6, Ectonucleotide pyrophosphatase/phosphodiesterase family member 1 (Homo sapiens, UniProt P22413).
T6 sequence (P22413 whole entry): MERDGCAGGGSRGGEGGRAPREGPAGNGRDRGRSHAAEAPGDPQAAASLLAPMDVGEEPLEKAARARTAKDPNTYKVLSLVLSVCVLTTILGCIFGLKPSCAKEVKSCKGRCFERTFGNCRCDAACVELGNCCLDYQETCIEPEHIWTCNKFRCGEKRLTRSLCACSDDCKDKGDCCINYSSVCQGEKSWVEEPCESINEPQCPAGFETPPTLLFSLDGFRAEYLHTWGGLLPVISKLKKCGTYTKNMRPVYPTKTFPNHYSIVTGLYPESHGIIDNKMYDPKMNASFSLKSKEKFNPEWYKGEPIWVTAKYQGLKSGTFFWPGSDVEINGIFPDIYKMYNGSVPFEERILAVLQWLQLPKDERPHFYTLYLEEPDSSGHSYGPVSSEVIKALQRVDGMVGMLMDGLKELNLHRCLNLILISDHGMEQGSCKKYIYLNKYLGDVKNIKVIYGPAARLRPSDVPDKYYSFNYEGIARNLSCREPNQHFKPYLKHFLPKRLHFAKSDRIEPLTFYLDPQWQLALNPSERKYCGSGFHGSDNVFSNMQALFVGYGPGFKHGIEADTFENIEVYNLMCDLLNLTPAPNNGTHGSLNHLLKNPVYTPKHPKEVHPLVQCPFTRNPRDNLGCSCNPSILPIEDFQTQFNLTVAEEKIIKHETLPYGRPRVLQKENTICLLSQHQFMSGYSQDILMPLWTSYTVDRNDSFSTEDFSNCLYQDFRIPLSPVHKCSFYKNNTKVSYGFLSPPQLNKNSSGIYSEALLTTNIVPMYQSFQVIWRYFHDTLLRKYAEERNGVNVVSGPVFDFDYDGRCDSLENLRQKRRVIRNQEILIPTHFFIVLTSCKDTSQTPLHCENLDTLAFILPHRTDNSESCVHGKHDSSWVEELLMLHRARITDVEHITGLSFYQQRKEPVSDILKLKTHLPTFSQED
Description: Inhibition of ENPP1 (unknown origin).

In test [7] the target is T2, Autotaxin. Description: Inhibition of ENPP2 (unknown origin).

Consider `Cc1nc2ncnn2c(N(C)C)c1Cc1ccc(N)cc1`, for which the IC50 – broadly, the concentration at which inhibition is half-maximal – was greater than 50 µM in test [1], greater than 50 µM in test [5], 0.47 µM in test [6] and greater than 50 µM against Autotaxin [7]. Further, the inhibition (commonly the percentage by which the read-out fell short of the control) was 7.7% at Autotaxin [2], 12% in test [3] and less than 1% in test [4].

`COc1ccc(Cc2c(C)nc3ncnn3c2N(C)C)cc1OC`: the IC50 in test [1] is greater than 50 µM; in test [5], greater than 50 µM; in test [6], 1.3 µM; against Autotaxin [7] it was greater than 50 µM. Besides, the inhibition at Autotaxin [2] was 6.8%; in test [3], 4.6%; in test [4], less than 1%.

As for `Cc1nc2ncnn2c(N(C)C)c1Cc1cccc(Cl)c1`, the concentration for half-maximal inhibition (IC50) in test [1] was greater than 50 µM; in test [5] it was greater than 50 µM; in test [6], 1.1 µM; against Autotaxin [7] it was greater than 50 µM. Further, the inhibition on Autotaxin [2] was 19%; in test [3], 8.7%; in test [4] it was 1.3%.

On to `CCCN(CCC)c1c(Cc2ccccc2)c(C)nc2ncnn12`, for which the IC50 was greater than 50 µM in test [1], greater than 50 µM in test [5], greater than 30 µM in test [6] and greater than 50 µM against Autotaxin [7]. The inhibition was 5.5% against Autotaxin [2], less than 1% in test [3] and less than 1% in test [4].

`CC(=O)Nc1cccc(Cc2c(C)nc3ncnn3c2N(C)C)c1`: the IC50 in test [1] is greater than 50 µM; in test [5], greater than 50 µM; in test [6], 2.3 µM; on Autotaxin [7], greater than 50 µM. For the same compound, the inhibition was less than 1% against Autotaxin [2], 3% in test [3] and less than 1% in test [4].

Turning to `Cc1cccc(Cc2c(C)nc3ncnn3c2N(C)C)c1`, the IC50 in test [1] was greater than 50 µM; in test [5], greater than 50 µM; in test [6] it was 3.1 µM; against Autotaxin [7] it was greater than 50 µM. The inhibition against Autotaxin [2] was 9.7%; in test [3] it was 4.9%; in test [4] it was 1.1%.

In the case of `Cc1nc2ncnn2c(N(C)C)c1Cc1cccc(-c2ccccc2)c1`, the IC50 in test [1] was greater than 50 µM; in test [5], greater than 50 µM; in test [6], 21 µM; at Autotaxin [7], greater than 50 µM. Also, the results for the inhibition (against Autotaxin [2]; in test [3]; in test [4]) were 6.1%, 5.9% and less than 1%, respectively.

For `Cc1cc(N(C)C)n2ncnc2n1`, the IC50 in test [1] is greater than 50 µM; in test [5], greater than 50 µM; in test [6], 28 µM; against Autotaxin [7], greater than 50 µM. Moreover, the inhibition against Autotaxin [2] was less than 1%; in test [3], 10%; in test [4] it was less than 1%.

Turning to `Cc1nc2ncnn2c(N(C)Cc2ccccc2)c1Cc1cccc(N)c1`, the concentration for half-maximal inhibition (IC50) in test [1] is greater than 50 µM; in test [5] it was greater than 50 µM; in test [6], greater than 30 µM; against Autotaxin [7], greater than 50 µM. Further, the inhibition (against Autotaxin [2]; in test [3]; in test [4]) was less than 1% each time.

In the case of `CC(=O)Nc1ccc(Cc2c(C)nc3ncnn3c2N(C)C)cc1`, the IC50 in test [1] was greater than 50 µM; in test [5] it was greater than 50 µM; in test [6], 4.9 µM; at Autotaxin [7], greater than 50 µM. For the same compound, the results for the inhibition (against Autotaxin [2]; in test [3]; in test [4]) were 5.1%, 8.5% and 2.3%, respectively.

Take `Cc1nc2ncnn2c(N(C)C)c1Cc1cccc(F)c1`: the IC50 in test [1] is greater than 50 µM; in test [5], greater than 50 µM; in test [6] it was 1.5 µM; against Autotaxin [7], greater than 50 µM. For the same compound, the values for the inhibition (against Autotaxin [2]; in test [3]; in test [4]) were 14%, 6.3% and less than 1%, respectively.

Regarding `Cc1nc2ncnn2c(N(C)C)c1CC1CCCCC1`, the half-inhibitory concentration (IC50) in test [1] was greater than 50 µM; in test [5] it was greater than 50 µM; in test [6] it was greater than 30 µM; against Autotaxin [7] it was greater than 50 µM. The inhibition against Autotaxin [2] was less than 1%; in test [3] it was 3.7%; in test [4], less than 1%.
